We go through 20 molecules from ChEMBL document CHEMBL5729675, “Sulfonamide compound or salt thereof” (2023).

Structures are written as SMILES. pIC50: −log10 of the molar value.

Chain of Ribonucleotide reductase (P23921 whole entry, looked up): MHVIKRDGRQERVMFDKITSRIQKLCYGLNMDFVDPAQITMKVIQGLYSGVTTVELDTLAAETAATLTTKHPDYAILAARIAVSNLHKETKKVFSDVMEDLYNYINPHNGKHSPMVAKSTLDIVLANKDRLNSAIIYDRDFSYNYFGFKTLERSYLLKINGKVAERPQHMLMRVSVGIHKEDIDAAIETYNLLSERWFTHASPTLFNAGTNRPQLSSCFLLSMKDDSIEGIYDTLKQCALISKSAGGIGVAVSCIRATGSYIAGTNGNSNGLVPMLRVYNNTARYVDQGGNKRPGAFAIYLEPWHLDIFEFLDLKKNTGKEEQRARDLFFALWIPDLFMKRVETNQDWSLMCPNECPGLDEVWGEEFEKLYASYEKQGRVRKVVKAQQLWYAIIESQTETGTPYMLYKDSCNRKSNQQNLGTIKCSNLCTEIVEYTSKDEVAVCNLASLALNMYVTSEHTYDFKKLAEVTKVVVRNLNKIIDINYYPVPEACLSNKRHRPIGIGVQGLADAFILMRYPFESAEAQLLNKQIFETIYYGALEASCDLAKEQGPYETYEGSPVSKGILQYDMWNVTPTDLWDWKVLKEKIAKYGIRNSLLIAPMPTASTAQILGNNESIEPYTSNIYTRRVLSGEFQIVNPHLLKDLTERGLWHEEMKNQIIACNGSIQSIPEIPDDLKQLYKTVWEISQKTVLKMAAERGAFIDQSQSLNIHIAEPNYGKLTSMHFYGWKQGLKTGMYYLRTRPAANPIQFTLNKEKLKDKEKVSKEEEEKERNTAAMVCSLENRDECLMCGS
Chain of Ribonucleotide reductase (Q7LG56 whole entry, looked up): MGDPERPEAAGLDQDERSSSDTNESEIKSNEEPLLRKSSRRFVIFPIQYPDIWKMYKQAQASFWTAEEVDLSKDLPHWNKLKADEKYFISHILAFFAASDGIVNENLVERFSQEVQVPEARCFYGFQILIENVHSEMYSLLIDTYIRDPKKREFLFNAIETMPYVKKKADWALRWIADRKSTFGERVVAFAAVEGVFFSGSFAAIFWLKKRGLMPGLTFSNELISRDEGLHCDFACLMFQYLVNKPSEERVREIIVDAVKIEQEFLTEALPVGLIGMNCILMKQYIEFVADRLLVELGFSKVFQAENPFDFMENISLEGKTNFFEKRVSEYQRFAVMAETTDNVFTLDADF

This test has as its target Ribonucleotide reductase (Homo sapiens, UniProt P23921+Q7LG56). As to the kind of experiment: Human RNR Inhibition Effect: The inhibitory activity against the ribonucleotide reduction reaction (hereinafter referred to as RNR reaction) of the test compound was determined by measuring the formation of deoxycytidine diphosphate (hereinafter referred to as dCDP) from cytidine diphosphate (hereinafter referred to as CDP) by the following method.Human M1 subunit and human M2 subunit (mutant ….
Broadly, the pIC50 is the IC50 on a negative log10 scale, so that one unit is a factor of ten. Higher therefore signals a low IC50. Take `Cc1ccc(F)c([C@@H](C)[C@H](NS(=O)(=O)c2ccc3[nH]ncc3c2)c2n[nH]c(=O)o2)c1C`: the pIC50 was 6.39.

`Cc1ccc(F)c([C@@H](C)[C@H](NS(=O)(=O)c2ccc3c(c2)C(=O)CCC3)c2n[nH]c(=O)o2)c1C`: the pIC50 is 6.46.

`Cc1c(Cl)ccc(F)c1[C@@H](C)[C@H](NS(=O)(=O)c1ccc(Br)cc1C(N)=O)c1n[nH]c(=O)o1` gave a negative-log IC50 (pIC50) of 6.82.

`CNC(=O)c1nc(S(=O)(=O)N[C@H](c2n[nH]c(=O)o2)[C@H](C)c2c(F)ccc(C)c2C)ccc1Cl` had a pIC50 of 7.22.

`Cc1ccc(F)c([C@@H](C)[C@H](NS(=O)(=O)c2cc(C(=O)N(C)C)ccc2C(N)=O)c2n[nH]c(=O)o2)c1C` gave a negative-log IC50 (pIC50) of 6.85.

On to `Cc1ccc(F)c([C@@H](C)[C@H](NS(=O)(=O)c2ccc(C3CC3)cc2C(N)=O)c2n[nH]c(=O)o2)c1C`, for which the pIC50 was 6.89.

Take `Cc1c(Cl)ccc(F)c1[C@@H](C)[C@H](NS(=O)(=O)c1ccc(Cl)c2c1OCCN2C)c1n[nH]c(=O)o1`: the pIC50 was 6.89.

`Cc1ccc(F)c([C@@H](C)[C@H](NS(=O)(=O)c2ccc3[nH]c(=O)[nH]c3c2)c2n[nH]c(=O)o2)c1C`: the negative logarithm of the IC50 (pIC50) is 6.08.

`CC(O)c1c(Cl)ccc(S(=O)(=O)N[C@H](c2n[nH]c(=O)o2)[C@H](C)c2cccc3c2CCC3)c1Cl` (stereo not given in full) gave a pIC50 of 6.77.

Turning to `Cc1ccc(F)c([C@@H](C)[C@H](NS(=O)(=O)c2ccc(Cl)cc2N)c2n[nH]c(=O)o2)c1C`, the negative logarithm of the IC50 (pIC50) was 6.64.

Regarding `Cc1ccc(F)c([C@@H](C)[C@H](NS(=O)(=O)c2ccc(Cl)cc2C(N)=O)c2n[nH]c(=O)o2)c1`, the pIC50 is 6.62.

Consider `COc1cc(Cl)ccc1S(=O)(=O)N[C@H](c1n[nH]c(=O)o1)[C@H](C)c1cccc2cccc(C)c12`, for which the pIC50 is 6.62.

In the case of `Cc1ccc(F)c([C@@H](C)[C@H](NS(=O)(=O)c2ccc(Cl)s2)c2n[nH]c(=O)o2)c1C`, the pIC50 is 6.35.

As to `Cc1ccc(F)c([C@@H](C)[C@H](NS(=O)(=O)c2ncc(Br)cc2C(=O)O)c2n[nH]c(=O)o2)c1C`, the pIC50 is 6.00.

`Cc1ccc(F)c([C@@H](C)[C@H](NS(=O)(=O)c2cc(C(C)(C)O)c(F)cc2C(N)=O)c2n[nH]c(=O)o2)c1C` had a pIC50 of 7.10.

In turn, `COc1cc(Cl)ccc1S(=O)(=O)N[C@H](c1n[nH]c(=S)[nH]1)[C@H](C)c1c(F)ccc(C)c1C` gave a pIC50 of 6.34.

As to `Cc1ccc(F)c([C@@H](C)[C@H](NS(=O)(=O)c2ccc(Br)cc2C#N)c2n[nH]c(=O)o2)c1C`, the pIC50 is 6.70.

On to `Cc1ccc(F)c([C@@H](C)[C@H](NS(=O)(=O)c2ccc(Cl)c3c2OCCN3)c2n[nH]c(=O)o2)c1C`, for which the negative logarithm of the IC50 (pIC50) is 7.00.

For the molecule `Cc1cccc2cccc([C@@H](C)[C@H](NS(=O)(=O)c3ccc(Cl)c4c3OCCC4O)c3n[nH]c(=O)o3)c12` (stereo not given in full), the pIC50 was 6.64.

For the molecule `COc1cc(N)ccc1S(=O)(=O)N[C@H](c1n[nH]c(=O)o1)[C@H](C)c1c(F)ccc2ccccc12`, the pIC50 was 6.59.
